From ChEMBL document CHEMBL4813917, “2-((1-Phenyl-1H-1,2,3-triazol-4-yl)methyl)-2-azabicyclo[3.2.1]octan-3-one derivatives: Simplification and modification of aconitine scaffold for the discovery of novel anticancer agents” (Eur J Med Chem, 2021)
The source made the active and inactive calls. No cut-off for these calls is given here.

Assays:
SW-620 [1] = experiment: Induction of apoptosis in human SW-620 cells assessed as viable cells at 20 nM measured after 24 hrs by Annexin V/PI staining based flow cytometry method (reference value: 94%); format: functional; settings: read-out: Activity
SW-620 [2] = experiment: Induction of apoptosis in human SW-620 cells assessed as viable cells at 80 nM measured after 24 hrs by Annexin V/PI staining based flow cytometry method (reference value: 94%); format: functional; settings: read-out: Activity
LoVo [3] = experiment: Inhibition of cell migration in human LoVo cells at 20 to 80 nM measured after 24 hrs by wound healing assay; format: functional, cell-based; settings: dose 20-80 nM
LoVo [4] = experiment: Cell cycle arrest in human LoVo cells assessed as accumulation of cells in G0/G1 phase at 20 to 80 nM measured after 24 hrs by PI staining based flow cytometry method; format: functional; settings: dose 20-80 nM
LoVo [5] = experiment: Induction of apoptosis in human LoVo cells assessed as increase in Bax levels at 20 to 80 nM measured after 24 hrs by Western blot assay; format: functional, cell-based; settings: dose 20-80 nM
SW-620 [6] = experiment: Induction of apoptosis in human SW-620 cells assessed as early apoptotic cells at 80 nM measured after 24 hrs by Annexin V/PI staining based flow cytometry method (reference value: 1.7%); format: functional
LoVo [7] = experiment: Antiproliferative activity against human LoVo cells assessed as inhibition of cell proliferation measured after 24 hrs by MTT assay; format: functional, cell-based
LoVo [8] = experiment: Induction of apoptosis in human LoVo cells assessed as necrotic cells at 40 nM measured after 24 hrs by Annexin V/PI staining based flow cytometry method (reference value: 1.3%); format: functional
LoVo [9] = experiment: Induction of apoptosis in human LoVo cells assessed as late apoptotic cells at 20 nM measured after 24 hrs by Annexin V/PI staining based flow cytometry method (reference value: 1.6%); format: functional
[10] = Toxicity in Balb/c mouse xenografted with human SW-620 cells assessed as changes in body weight at 5 mg/kg, ip measured after 21 days; format: organism-based; settings: in vivo, 504 h, time 21 day
LoVo [11] = experiment: Induction of apoptosis in human LoVo cells assessed as late apoptotic cells at 80 nM measured after 24 hrs by Annexin V/PI staining based flow cytometry method (reference value: 1.6%); format: functional
SW-620 [12] = experiment: Induction of apoptosis in human SW-620 cells assessed as decrease in Bcl-2 levels at 20 to 80 nM measured after 24 hrs by Western blot assay; format: functional, cell-based; settings: dose 20-80 nM
[13] = Cytotoxicity against human L02 cells assessed as reduction in cell viability measured after 24 hrs by MTT assay; format: cell-based
SW-620 [14] = experiment: Induction of apoptosis in human SW-620 cells assessed as necrotic cells at 20 nM measured after 24 hrs by Annexin V/PI staining based flow cytometry method (reference value: 3%); format: functional
LoVo [15] = experiment: Induction of apoptosis in human LoVo cells assessed as early apoptotic cells at 20 nM measured after 24 hrs by Annexin V/PI staining based flow cytometry method (reference value: 1.6%); format: functional
LoVo [16] = experiment: Induction of apoptosis in human LoVo cells assessed as early apoptotic cells at 40 nM measured after 24 hrs by Annexin V/PI staining based flow cytometry method (reference value: 1.6%); format: functional

IC50 (LoVo [7]): 0.03 µM
SMILES: CC1(C)[C@H]2CC[C@]1(C)N(Cc1cn(-c3cccc(Br)c3)nn1)C(=O)C2
viability at 0.02 µM (SW-620 [1]): 83.9% | viability at 0.08 µM (SW-620 [2]): 46.4% | inhibition (LoVo [3]): Dose-Dependent Effect | Activity (LoVo [4]): Active | Activity (LoVo [5]): Active | Activity (SW-620 [6]): 20.6% | Activity (LoVo [8]): 1.6% | Activity (LoVo [9]): 3.1% | Activity [10]: Non-Toxic | Activity (LoVo [11]): 24.9% | Activity (SW-620 [12]): Active | CC50 at 24 h [13]: 10.5 µM | Activity (SW-620 [14]): 2.5% | Activity (LoVo [15]): 3% | Activity (LoVo [16]): 3.2%
